Test results as given in patent US20020115611A1, “Methods for screening GABA-modulatory compounds for specified pharmacological activities” (priority 1999, published 2002).
Read-outs that look alike come from different tables or passages of the source.

Assays:
[1] = target: α5β3γ2 GABAA subtype receptor (Homo sapiens, UniProt P18507+P31644); assay: cell-based; conditions: for Emax: read-out: oocyte electrophysiology maximum potentiation α5β3γ2
Description: (§1) The in vitro efficacy and EC50 value of the test compound may be determined by measuring the chloride flux at the surface of a cell expressing the α,β, and γ subunits of the GABAA receptor in response to GABA by the two electrode voltage-clamp technique. While a variety of cells are suitable for use herein, the preferred cells used in this technique are Xenopus laevis oocytes that have been injected with non-polyadenylated CRNA coding for human derived α, βand γ GABAA subunits. The preferred form of the γ subunit is the normally expressed long form although an alternatively spliced form may be used.
(§2) Assays are carried out as described previously in White and Gurley, 1995 and White, et al., 1995. Xenopus laevis oocytes are enzymatically isolated and injected with non-polyadenylated cRNA for human derived α, β and γ GABAA subunits, respectively. In more preferred embodiments cRNA for the α1β2γ2, α2β3γ2, α3β3γ2, and α5β3γ2 subunit combinations are injected. Only one of these subunit combinations is injected per cell. For each subunit combination, sufficient message is injected to result in current amplitudes of >10 nA when 1 μM GABA is applied. Electrophysiological recordings are carried out using the two electrode voltage-clamp technique at a membrane holding potential of −70 mV.
(§3) Compounds are evaluated against a GABA concentration that evokes <10% (EC10) of the maximal evocable GABA current. Each oocyte is exposed to increasing concentrations of compound in order to evaluate a concentration/effect relationship.
(§4) Specificity of a compound for the Ro15-1788 site is determined following completion of the concentration/effect curve. After washing the oocyte sufficiently to remove previously applied compound, the oocyte is exposed to GABA and 1 μM Ro15-1788, followed by exposure to GABA, 1 μM Ro15-1788, and compound. Percent change due to addition of compound is calculated as described above. Any percent change observed in the presence of Ro15-1788 is subtracted from the percent changes in current amplitude observed in the absence of 1 μM Ro15-1788. These net values are used for the calculation of average activity and EC50 values.
(§5) To evaluate average activity and EC50 values, the concentration/effect data are averaged across cells and fit to the logistic equation. Average values are reported as mean±standard error.

[2] = target: α1β2γ2 GABAA subtype receptor (Homo sapiens, UniProt P14867+P18507); assay: cell-based; conditions: for EC50: oocyte electrophysiology EC50 α1β2γ2, Xenopus laevis oocytes; for EC50 / oocyte electrophysiology maximum potentiation α1β2γ2: human subunits, GABA at EC10; for oocyte electrophysiology maximum potentiation α1β2γ2: Xenopus laevis oocytes, negative = inverse agonism
Description: as §1, §2, §3, §4, §5

[3] = target: α2β3γ2 GABAA subtype receptor (Homo sapiens, UniProt P18507+P47869); assay: cell-based; conditions: for EC50 / oocyte electrophysiology maximum potentiation α2β3γ2: human subunits, GABA at EC10; for Emax: read-out: oocyte electrophysiology maximum potentiation α2β3γ2; for oocyte electrophysiology maximum potentiation α2β3γ2: negative = inverse agonism
Description: as §1, §2, §3, §4, §5

[4] = target: α3β3γ2 GABAA subtype receptor (Homo sapiens, UniProt P18507+P34903); assay: cell-based; conditions: for EC50 / oocyte electrophysiology maximum potentiation α3β3γ2: human subunits, GABA at EC10; for Emax: read-out: oocyte electrophysiology maximum potentiation α3β3γ2; for oocyte electrophysiology maximum potentiation α3β3γ2: negative = inverse agonism
Description: as §1, §2, §3, §4, §5

rats = assay: step-down passive avoidance; type: in vivo; conditions: rat; cognitive impairment side effect (Table VII); NS = no statistically significant effect over dose range
Description: A statistically significant effect in the spatial water maze, step-down passive avoidance, spontaneous locomotor activity, Porsolt swim test, or the elevated plus maze models is defined as p<0.05 using a valid parametric statistical test. Likewise, no statistically significant effect is defined in these models as p>0.05 using a valid parametric statistical test. No statistically significant effect for either of the seizure threshold models is defined as a decrease of less than 25% in the seizure threshold in the presence of a seizure inducing drug or a result that is not significant at the p<0.05 level.
In step-down passive avoidance a rat is placed on a platform located in the center of an electrified grid floor that is contained within a large (45 cm×45 cm×50 cm) white translucent Plexiglas® enclosure. The natural inclination of the rat is to step off the platform and investigate its surroundings. […] Each time the animal steps off the platform it receives a mild foot shock of 2 mAmps×6 sec. Following each shock the animal is removed from the box, placed in its cage for a one minute inter-trial interval, and then returned to the platform. The latency to step down on each trial, the number of trials taken to reach criterion during training and the retention latency are collected.
Testing is conducted approximately 24 hrs. after training. Drug-free animals are placed on the platform in the box in which they will have been trained and the latency to step down onto the grid floor is recorded for one trial as a measure of memory retention.

[5] = oocyte electrophysiology EC50 α5β3γ2, Xenopus laevis oocytes, human subunits, GABA at EC10
[6] = oocyte electrophysiology EC50 α2β3γ2, Xenopus laevis oocytes
[7] = oocyte electrophysiology EC50 α3β3γ2, Xenopus laevis oocytes
[8] = Xenopus laevis oocytes, human subunits, GABA at EC10, read-out: oocyte electrophysiology EC50 α5β3γ2
[9] = Xenopus laevis oocytes, read-out: oocyte electrophysiology EC50 α3β3γ2

Sequence of α2β3γ2 GABAA subtype receptor (P47869 29-451): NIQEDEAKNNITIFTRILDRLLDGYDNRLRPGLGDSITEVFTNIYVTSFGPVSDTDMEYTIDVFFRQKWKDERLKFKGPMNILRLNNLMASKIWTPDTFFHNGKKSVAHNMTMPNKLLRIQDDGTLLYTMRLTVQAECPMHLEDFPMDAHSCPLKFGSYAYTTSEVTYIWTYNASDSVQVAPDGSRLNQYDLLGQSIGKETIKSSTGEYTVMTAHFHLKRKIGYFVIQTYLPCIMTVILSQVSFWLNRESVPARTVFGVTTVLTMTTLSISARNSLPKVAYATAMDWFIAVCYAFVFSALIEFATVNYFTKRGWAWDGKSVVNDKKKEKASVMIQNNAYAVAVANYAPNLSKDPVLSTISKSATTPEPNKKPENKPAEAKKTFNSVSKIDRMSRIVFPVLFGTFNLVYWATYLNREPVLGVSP
Sequence of α2β3γ2 GABAA subtype receptor (P28472 26-473 partner): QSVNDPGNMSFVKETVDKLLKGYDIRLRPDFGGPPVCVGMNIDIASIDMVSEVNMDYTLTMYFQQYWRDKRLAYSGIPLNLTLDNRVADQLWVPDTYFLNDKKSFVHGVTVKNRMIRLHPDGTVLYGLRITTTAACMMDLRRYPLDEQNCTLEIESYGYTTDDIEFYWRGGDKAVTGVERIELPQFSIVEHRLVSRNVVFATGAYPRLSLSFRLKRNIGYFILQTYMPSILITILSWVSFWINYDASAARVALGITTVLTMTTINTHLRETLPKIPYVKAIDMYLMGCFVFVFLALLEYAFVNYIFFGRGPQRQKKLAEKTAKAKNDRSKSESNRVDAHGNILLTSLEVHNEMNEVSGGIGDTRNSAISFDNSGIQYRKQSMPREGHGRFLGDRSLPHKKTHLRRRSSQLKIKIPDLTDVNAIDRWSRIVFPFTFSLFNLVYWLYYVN
Sequence of α2β3γ2 GABAA subtype receptor (P18507 40-475): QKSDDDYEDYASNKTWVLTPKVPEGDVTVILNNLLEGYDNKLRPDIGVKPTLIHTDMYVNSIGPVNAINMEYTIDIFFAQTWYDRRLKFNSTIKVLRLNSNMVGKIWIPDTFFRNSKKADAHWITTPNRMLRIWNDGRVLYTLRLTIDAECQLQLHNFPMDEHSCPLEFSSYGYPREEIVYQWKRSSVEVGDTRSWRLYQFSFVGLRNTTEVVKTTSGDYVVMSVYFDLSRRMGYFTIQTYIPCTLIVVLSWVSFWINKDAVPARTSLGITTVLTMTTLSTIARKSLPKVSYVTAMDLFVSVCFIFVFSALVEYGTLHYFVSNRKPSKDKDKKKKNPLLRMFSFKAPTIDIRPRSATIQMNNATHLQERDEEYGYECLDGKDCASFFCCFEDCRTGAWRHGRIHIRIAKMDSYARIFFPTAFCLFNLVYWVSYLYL
Sequence of α1β2γ2 GABAA subtype receptor (P14867 28-456): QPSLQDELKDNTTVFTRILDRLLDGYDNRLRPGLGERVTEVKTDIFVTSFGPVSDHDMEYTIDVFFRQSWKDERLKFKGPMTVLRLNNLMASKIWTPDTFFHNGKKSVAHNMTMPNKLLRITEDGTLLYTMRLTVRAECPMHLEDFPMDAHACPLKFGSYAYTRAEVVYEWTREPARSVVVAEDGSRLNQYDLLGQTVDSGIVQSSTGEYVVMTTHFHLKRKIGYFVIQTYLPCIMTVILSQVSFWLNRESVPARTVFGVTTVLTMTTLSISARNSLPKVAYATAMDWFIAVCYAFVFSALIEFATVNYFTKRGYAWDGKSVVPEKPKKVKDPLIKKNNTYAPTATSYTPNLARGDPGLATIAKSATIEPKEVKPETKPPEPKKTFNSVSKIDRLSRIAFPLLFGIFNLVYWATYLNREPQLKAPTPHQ
Sequence of α1β2γ2 GABAA subtype receptor (P47870 25-512 partner limits assumed): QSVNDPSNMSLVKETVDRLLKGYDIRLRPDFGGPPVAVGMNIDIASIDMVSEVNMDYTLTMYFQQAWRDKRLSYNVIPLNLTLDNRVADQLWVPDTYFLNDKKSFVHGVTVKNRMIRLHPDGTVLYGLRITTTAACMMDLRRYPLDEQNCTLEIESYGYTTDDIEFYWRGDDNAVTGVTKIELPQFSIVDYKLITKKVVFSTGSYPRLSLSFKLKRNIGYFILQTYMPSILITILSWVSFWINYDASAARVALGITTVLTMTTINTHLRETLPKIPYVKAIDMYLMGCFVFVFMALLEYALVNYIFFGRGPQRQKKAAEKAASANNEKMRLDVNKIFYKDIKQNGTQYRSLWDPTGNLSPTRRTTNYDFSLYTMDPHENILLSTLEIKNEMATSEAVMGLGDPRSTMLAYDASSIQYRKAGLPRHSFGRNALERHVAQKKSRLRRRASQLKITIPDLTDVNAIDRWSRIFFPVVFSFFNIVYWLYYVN
Sequence of α1β2γ2 GABAA subtype receptor (P18507 40-475): as the sequence (P18507 40-475) above
Sequence of α5β3γ2 GABAA subtype receptor (P31644 32-462): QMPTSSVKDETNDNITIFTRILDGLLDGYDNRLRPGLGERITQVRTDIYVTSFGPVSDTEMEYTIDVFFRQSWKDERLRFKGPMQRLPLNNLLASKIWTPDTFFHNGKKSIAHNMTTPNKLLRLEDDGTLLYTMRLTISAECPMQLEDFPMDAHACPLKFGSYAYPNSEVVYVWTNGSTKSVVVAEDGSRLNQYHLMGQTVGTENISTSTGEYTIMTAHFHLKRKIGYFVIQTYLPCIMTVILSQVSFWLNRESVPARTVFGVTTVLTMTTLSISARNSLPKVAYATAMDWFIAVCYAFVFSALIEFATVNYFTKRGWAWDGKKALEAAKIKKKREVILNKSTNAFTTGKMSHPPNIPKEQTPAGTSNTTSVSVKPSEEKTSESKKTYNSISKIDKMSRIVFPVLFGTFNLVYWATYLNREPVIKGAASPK
Sequence of α5β3γ2 GABAA subtype receptor (P28472 26-473 partner): as the sequence (P28472 26-473 partner) above
Sequence of α5β3γ2 GABAA subtype receptor (P18507 40-475): as the sequence (P18507 40-475) above
Sequence of α3β3γ2 GABAA subtype receptor (P34903 29-492): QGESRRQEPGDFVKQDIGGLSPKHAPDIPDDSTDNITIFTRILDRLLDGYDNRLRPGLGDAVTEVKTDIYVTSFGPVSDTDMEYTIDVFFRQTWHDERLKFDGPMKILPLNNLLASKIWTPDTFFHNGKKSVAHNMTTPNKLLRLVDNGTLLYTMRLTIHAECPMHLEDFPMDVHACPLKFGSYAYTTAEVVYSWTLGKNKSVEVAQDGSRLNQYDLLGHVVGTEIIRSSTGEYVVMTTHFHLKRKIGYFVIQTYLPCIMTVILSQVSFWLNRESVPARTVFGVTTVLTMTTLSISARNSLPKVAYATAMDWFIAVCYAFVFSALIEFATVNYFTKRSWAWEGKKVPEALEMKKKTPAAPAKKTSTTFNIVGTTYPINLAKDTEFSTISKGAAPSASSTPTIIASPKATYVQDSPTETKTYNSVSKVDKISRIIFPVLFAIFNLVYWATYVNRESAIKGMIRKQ
Sequence of α3β3γ2 GABAA subtype receptor (P28472 26-473 partner): as the sequence (P28472 26-473 partner) above
Sequence of α3β3γ2 GABAA subtype receptor (P18507 40-475): as the sequence (P18507 40-475) above

Cc1nnc2n1-c1ccc(Cl)cc1C(c1ccccc1)=NC2 [Alprazolam, reference compound]
EC50 [1, 5]: 0.01 µM
EC50 [2]: 0.037 µM
EC50 [3, 6]: 0.012 µM
EC50 [4, 7]: 0.069 µM

Cc1ccc(-c2nc3ccc(C)cn3c2CC(=O)N(C)C)cc1 [Zolpidem, reference compound]
step-down passive avoidance, minimal efficacious dose (rats): 0.5 mg/kg
EC50 ([1]; oocyte electrophysiology EC50 α5β3γ2, Xenopus laevis oocytes, human subunits, μM): > 3 µM
Emax [1]: < 20%
Emax [3]: 350%
Emax [4]: 882%

O=c1c(-c2ccccc2F)nc2c[nH]c3ccccc3n1-2 [compound 2]
EC50 [1, 5]: 0.036 µM
oocyte electrophysiology maximum potentiation α1β2γ2 [2]: 18%
EC50 [2]: 0.033 µM
oocyte electrophysiology maximum potentiation α2β3γ2 ([3]; Xenopus laevis oocytes): 40%
EC50 [3, 6]: 0.012 µM
EC50 [4, 7]: 0.023 µM

O=C(Nc1cccc(F)c1)c1c[nH]c2c(c1=O)CCC2 [compound 5]
oocyte electrophysiology maximum potentiation α2β3γ2 ([3]; Xenopus laevis oocytes): 44%
EC50 [3, 6]: 0.009 µM
EC50 [4, 7]: 0.021 µM

COc1ccc(NC(=O)c2c[nH]c3c2C(=O)CC(C)(C)C3)c(F)c1 [compound 6]
step-down passive avoidance, minimal efficacious dose (rats): 4 mg/kg
EC50 [1, 8]: 0.108 µM
Emax [1]: 42%
EC50 [2]: 0.044 µM
Emax ([2]; read-out: oocyte electrophysiology maximum potentiation α1β2γ2): 25%
oocyte electrophysiology maximum potentiation α2β3γ2 ([3]; Xenopus laevis oocytes): 72%
EC50 [3, 6]: 0.028 µM
oocyte electrophysiology maximum potentiation α3β3γ2 ([4]; Xenopus laevis oocytes): 95%
EC50 [4, 7]: 0.033 µM

O=c1[nH]c2c(n1-c1nc3ccc(F)c(F)c3o1)CCCCC2 [compound 7]
EC50 [1, 8]: 0.174 µM
oocyte electrophysiology maximum potentiation α1β2γ2 [2]: 18%
EC50 [2]: 0.005 µM
oocyte electrophysiology maximum potentiation α2β3γ2 ([3]; Xenopus laevis oocytes): 51%
EC50 [3, 6]: 0.004 µM
oocyte electrophysiology maximum potentiation α3β3γ2 ([4]; Xenopus laevis oocytes): 83%
EC50 [4, 7]: 0.009 µM

CC1CC(=O)c2c(C(=O)Nc3ccc(F)cc3)c[nH]c2C1 (centres unmarked) [compound 8]
oocyte electrophysiology maximum potentiation α5β3γ2 ([1]; Xenopus laevis oocytes, human subunits, GABA at EC10, negative = inverse agonism): 16%
EC50 [1, 5]: 0.04 µM
oocyte electrophysiology maximum potentiation α1β2γ2 [2]: 17%
EC50 [2]: 0.014 µM
oocyte electrophysiology maximum potentiation α2β3γ2 ([3]; Xenopus laevis oocytes): 42%
EC50 [3, 6]: 0.039 µM
oocyte electrophysiology maximum potentiation α3β3γ2 ([4]; Xenopus laevis oocytes): 61%
EC50 [4, 7]: 0.037 µM

c1cc2c(cc1-c1ncc3[nH]c4c(c3n1)CCCC4)OCO2 [compound 9]
step-down passive avoidance, minimal efficacious dose (rats): 0.5 mg/kg
oocyte electrophysiology maximum potentiation α1β2γ2 [2]: 33%
EC50 [2]: 0.074 µM
EC50 ([3]; Xenopus laevis oocytes, read-out: oocyte electrophysiology EC50 α2β3γ2): 0.184 µM
Emax [3]: 53%
EC50 [4, 9]: 0.331 µM
Emax [4]: 23%

O=c1c2c[nH]c3ccccc3n-2c(=O)n1-c1ccc(F)cc1 [compound 10]
EC50 [1, 5]: 0.081 µM
EC50 [3, 6]: 0.031 µM
EC50 [4, 7]: 0.046 µM

COc1ccc(F)c(-c2ncc3[nH]c4c(c3n2)CCCC4)c1 [compound 11]
EC50 [1, 8]: 0.847 µM
EC50 [2]: 0.021 µM
EC50 [3, 6]: 0.096 µM
EC50 [4, 9]: 0.177 µM

O=C(Nc1ccc(OCCO)cc1)c1c[nH]c2c1C(=O)CCC2 [compound 12]
EC50 [1, 5]: 0.019 µM
oocyte electrophysiology maximum potentiation α1β2γ2 [2]: 15%
EC50 [2]: 0.018 µM
EC50 [3, 6]: 0.011 µM
EC50 [4, 7]: 0.018 µM

O=C(Nc1ccccc1)c1c[nH]c2c1C(=O)CCCC2 [compound 13]
EC50 [1, 5]: 0.023 µM
EC50 [2]: 0.003 µM
EC50 [3, 6]: 0.053 µM
EC50 [4, 7]: 0.036 µM
